Test results from US9226929B2, “Pharmaceutically active disubstituted triazine derivatives” (Bayer Intellectual Property GMBH, priority 2011, dated 2016).
pIC50, pKd: −log10 of the molar value.

Assays:
CDK4/CyclinD1 = target: T1, CDK4/CyclinD1 (Homo sapiens, UniProt P11802); assay: Lance Ultra KinaSelect Assay, CDK4; type: biochemical; conditions: ATP 90 μM; read-out: CDK4 LANCE assay (activity range), IC50
T1 construct: purchased Invitrogen
Protocol: (§1) 2. Measurement of half maximal inhibitory concentration to CDKs This protocol describes how the Lance Ultra KinaSelect Assay was performed to determine half maximal inhibitory concentration (1050) of compounds of general formula (I) and CDK/Cyclin complexes. The principle behind this enzymatic assay is based upon the phosphorylation of the ULight-Peptide Substrat. It is detected by using a specific
(§2) EU-labeled anti-phospho peptide antibody. The binding of the Eu-labeled anti-phospho peptide antibody to the phosphorylated ULight labeled peptide gives rise to a FRET-signal. Binding of an inhibitor to the kinase prevents phosphorylation of the ULight-MBP Substrat, resulting in a loss of FRET.
(§3) The compounds of general formula (I) summarized in Table 5 were diluted from a 10 mM DMSO stock solution 1:10 in a total volume of 15 μL DMSO. This compound predilution was then serial diluted 1:3 over 8 steps in DMSO and briefly spun down. Each compound solution was now diluted 1:20 in Enzymatic Buffer (HEPES: 50 mM, pH: 7.5; MgCl2: 10 mM; EGTA: 1 mM; DTT: 2 mM; Tween-20: 0.01%), mixed thoroughly and spun down. For every sample, 2 μL of the diluted compound were mixed with 6 μL CDK/Cyclin/Substrat solution and 2 μL ATP solution in a well of a small volume 384 well plate (Corning Incorporated, Corning, N.Y., USA; order no. 3673). The CDK/Cyclin was diluted to the appropriate concentration (see Table 3) and the ATP concentration was adjusted to its […] for the CDK/Cyclin, which was 3 μM for CDK2/Cyclin A, 20 μM for CDK1/Cyclin B1, 25 μM for CDK7/Cyclin H and CDK9/Cyclin T1, 55 μM for CDK6/Cyclin D3, 90 μM for CDK4/Cyclin D1 and 125 μM for CDK9/Cyclin K. For negative controls, in each well 2 μL of DMSO solution (1% final DMSO assay concentration) was mixed with 6 μL substrate solution (50 nM ULight MBP final assay concentration) and 2 μL ATP solution (appropriate final concentration see Table 3). For positive controls, in each well 2 μL of DMSO solution (1% final DMSO assay concentration) was mixed with 6 μL CDK/Cyclin/Substrat (appropriate final concentration see Table 3) and 2 μL Tracer ATP solution (appropriate final concentration see Table 3). Positive and negative controls were calculated from at least 8 different sample wells. The 384 well plates were mixed in a Teleshaker plate mixer (Beckman Coulter, Brea, Calif., USA) at 2000 rpm for 40 sec, and incubated for 1 h at room temperature. Before reading, 10 μL the detection buffer (Lance Detection Buffer 1×; EDTA: […]; Eu-Anti-P-MBP: see Table 3) was added. The FRET signal was measured at 340 nm excitation, 665 nm and 615 nm emission (for the kinase tracer and LanthaScreen Eu-AB, respectively) with an Envision spectrophotometer (Perkin Elmer, Waltham, Mass., USA) with 50 μs delay and 300 μs integration time. IC50 values were determined from the sigmoidal dose response curves with the software Quattro Workflow (Quattro GmbH, Munich, Germany).

CDK7/CyclinH/MAT1 [1] = target: T2, CDK7/CyclinH/MAT1 (Homo sapiens, UniProt P50613); assay: Lance Ultra KinaSelect Assay, CDK7; type: biochemical; conditions: ATP 25 μM; read-out: CDK7 LANCE assay (activity range), IC50
T2 construct: His; purchased Carna Biosciences
Protocol: as §1, §2, §3

CDK9 = target: T3, CDK9 (Homo sapiens, UniProt P50750); assay: Lance Ultra KinaSelect Assay, CDK9; type: biochemical; conditions: cyclin partner (T1 or K) not stated; read-out: CDK9 LANCE assay (activity range), IC50
T3 construct: purchased Invitrogen
Protocol: as §1, §2, §3

CDK9/Cyclin K = target: T4, CDK9/Cyclin K (Homo sapiens, UniProt P50750); assay: LanthaScreen Eu Kinase Binding Assay, CDK9/Cyclin K; conditions: tracer 236, read-out: CDK9/Cyclin K (activity range), Kd
T4 construct: His; purchased Invitrogen
Protocol: (§4) This protocol describes how the LanthaScreen Eu Kinase Binding Assay was performed to determine dissociation constants (Kd) of compounds of general formula (I) and CDK/Cyclin complexes. The principle behind this assay is based upon the binding and displacement of an Alexa Fluor 647-labeled tracer, which binds to the active site of kinases. Binding of the tracer to the kinase is detected using a Eu-labeled antibody. Simultaneous binding of both the tracer and antibody to the kinase gives rise to a FRET-signal. Binding of an inhibitor to the kinase competes for binding with the tracer, resulting in a loss of FRET.
(§5) The compounds of general formula (I) summarized in Table 1 were diluted from a 10 mM DMSO stock solution 1:10 in a total volume of 15 μL DMSO. This compound predilution was then serial diluted 1:3 over 8 steps in DMSO and briefly spun down. Each compound solution was now diluted 1:33.33 in kinase buffer (HEPES: 20 mM, pH: 8.0; MgCl2: 10 mM; DTT: 1 mM; Brij-35: 0,01%), mixed thoroughly and spun down. For every sample, 5 μL of the diluted compound were mixed with 5 μL tracer working solution (e.g. 60 nM tracer 236 in kinase buffer for CDK2/Cyclin A) and 5 μL CDK/Cyclin/Anti-GST-AB-working solution (e.g. 15 nM CDK2/Cyclin A, 1:250 dilution of Anti-GST-AB in kinase buffer) in a well of a small volume 384 well plate (Corning Incorporated, Corning, N.Y., USA; order no. 3673). The tracer concentration was adjusted to its dissociation constant (Kd) for the CDK/Cyclin, which was 30 nM for CDK2/Cyclin A, CDK7/Cyclin H and CDK9/Cyclin T1, 20 nM for CDK8/Cyclin C, and 35 nM for CDK9/Cyclin K. For negative controls, in each well 5 μL of DMSO working solution (3% DMSO diluted in kinase buffer) was mixed with 5 μL Anti-GST-AB working solution (e.g. 1:250 dilution of Anti-GST-AB in kinase buffer for CDK2/Cyclin A) and 5 μL Tracer working solution (e.g. 60 nM Tracer 236 in kinase buffer for CDK2/Cyclin A). For positive controls, in each well 5 μL of DMSO working solution (3% DMSO diluted in kinase buffer) was mixed with 5 μL CDK/Cyclin/Anti-GST-AB-working solution: (e.g. 15 nM CDK2/Cyclin A, 1:250 dilution of Anti-GST-AB in kinase buffer) and 5 μL Tracer working solution (e.g. 60 nM Tracer 236 in kinase buffer for CDK2/Cyclin A). Positive and negative controls were calculated from at least 8 different sample wells. The 384 well plates were mixed in a Teleshaker plate mixer (Beckman Coulter, Brea, Calif., USA) at 2000 rpm for 40 sec, and incubated for 1 h at room temperature before reading. The FRET signal was measured at 340 nm excitation, 665 nm and 615 nm emission (for the kinase tracer and LanthaScreen Eu-AB, respectively) with an Envision spectrophotometer (Perkin Elmer, Waltham, Mass., USA) with […]. Kd values were determined from the sigmoidal dose response curves with the software Quattro Workflow (Quattro GmbH, Munich, Germany).

CDK1/CyclinB1 = target: T5, CDK1/CyclinB1 (Homo sapiens, UniProt P06493); assay: Lance Ultra KinaSelect Assay, CDK1; type: biochemical; conditions: ATP 20 μM; read-out: CDK1 LANCE assay (activity range), IC50
T5 construct: purchased Carna
Protocol: as §1, §2, §3

CDK2/CyclinA [2] = target: T6, CDK2/CyclinA (Homo sapiens, UniProt P24941); assay: Lance Ultra KinaSelect Assay, CDK2; type: biochemical; conditions: ATP 3 μM; read-out: CDK2 LANCE assay (activity range), IC50
T6 construct: GST; purchased Proqinase
Protocol: as §1, §2, §3

CDK9/Cyclin T1 = target: T7, CDK9/Cyclin T1 (Homo sapiens, UniProt P50750); assay: LanthaScreen Eu Kinase Binding Assay, CDK9/Cyclin T1; conditions: tracer 236, read-out: CDK9/Cyclin T1 (activity range), Kd
T7 construct: His; purchased Invitrogen
Protocol: as §4, §5

CDK6/CyclinD3 = target: T8, CDK6/CyclinD3 (Homo sapiens, UniProt Q00534); assay: Lance Ultra KinaSelect Assay, CDK6; type: biochemical; conditions: ATP 55 μM; read-out: CDK6 LANCE assay (activity range), IC50
T8 construct: purchased Carna
Protocol: as §1, §2, §3

CDK2/CyclinA [3] = target: T6, CDK2/CyclinA; assay: LanthaScreen Eu Kinase Binding Assay, CDK2; conditions: tracer 236, read-out: CDK2 (activity range), Kd
Protocol: as §4, §5

CDK7/CyclinH/MAT1 [4] = target: T2, CDK7/CyclinH/MAT1; assay: LanthaScreen Eu Kinase Binding Assay, CDK7; conditions: tracer 236, read-out: CDK7 (activity range), Kd
Protocol: as §4, §5

[5] = test system: NF-kappaB reporter gene activation; assay: NF-kappaB Reporter Assay; type: cell-based; conditions: Homo sapiens; HEK293 cells, pNFkBluc reporter, 20 ng/ml TNF alpha, 5 h; read-out: NF-kappaB activation (activity range), IC50
Protocol: 3.2 NF-kappaB Reporter Assay
Cells were maintained in RPMI cell culture medium+glutamine (PAN Biotech GmbH, Aidenbach, Germany) supplemented with 10% fetal calf serum (PAA Laboratories GmbH, Pasching, Austria) and grown at 37° C., 5% CO2. HEK293 cells grown to 50% confluence were transfected with the Amaxa® Cell Line Nucleofector® Kit V (Lonza, Basel, Switzerland, catalog #VCA-1003). Transfections were performed according to manufacturer's optimized protocol for transfection of HEK293 cells. In brief, 2×10^5 cells were transfected with 5 μg highly purified plasmid DNA. Cells were transfected with a NF-kappa B reporter plasmid (pNFkBluc), pTALluc for control, or pMAXGFP for transfection control. After transfection, cells were taken up in 500 μL RPMI1640 cell culture medium, incubated for 1 h at 37° C., and 4.5 ml DMEM without phenol red were added per transfection. Transfected cells were seeded in 96 well plates (Greiner Bio-One, Frickenhausen, Germany, catalog #655098) with 100 μL cell suspension per well and incubated for 48 h. To each well, 100 μL DMEM with 2× concentrated compound diluted from 10 mM DMSO stocks, or 100 μL DMEM with 0.4% DMSO for control wells, was added. The compounds of general formula (I) summarized in Table 6 were used in this assay. Cells were stimulated with 20 ng/ml TNF alpha, and plates were incubated for 5 h at 37° C./5% CO2. Cell culture supernatants were removed to leave 100 μl medium per well, followed by addition of 100 μl Bright Glo luciferase assay reagent (Promega, Madison, Wis., USA, catalog #E2620), and shaking for 5 minutes in the dark. Luminescence was measured with a Victor Photospectrometer (Perkin Elmer, Waltham, Mass., USA). IC50 values were calculated with the software Excel Fit (IDBS, Guildford, UK) from 2-fold dilution series comprising at least 10 concentrations in duplicates.

MDAMB468 cells = assay: Cell Viability Assay, MDAMB468 cells; type: cell-based; conditions: Homo sapiens, MDA-MB-468; 72 h, Cell Titer Glo; read-out: Cell Viability - MDAMB468 cells (activity range), IC50
Protocol: (§6) 3.4 Cell Viability Assays
(§7) Hela- or MDAMB468-Cells were maintained in RPMI 1640 or McCoy's 5A cell culture medium+glutamine (PAN Biotech GmbH, Aidenbach, Germany; order no. PO4-22100; PO4-05500) supplemented with 10% fetal calf serum “Gold” (PAA Laboratories GmbH, Pasching, Austria; order no. A15-151) and grown at 37° C., 5% CO2. For the cell viability assay, cells were seeded with a density of 400 (Hela cells, DSMZ Braunschweig order no. ACC57) or 800 (MDAMB468 cells, ATCC order no. HTB-132) per well in 25 μL in 384-well plates (Greiner Bio-One, Frickenhausen, Germany; order no. 781080). After overnight incubation at 37° C./5% CO2, 25 nL or 75 nL compound were added to each sample well by using BIOMEK FXP Laboratory Automation Workstation (Beckman Coulter, USA). Wells with cells and 0.1% or 0,3% DMSO in culture medium were used as positive controls, wells with cells and 10 μM staurosporine in culture medium were used as negative controls. The cells were incubated with the compounds for 72 h at 37° C./5% CO2. For measurement of cell viability 25 μL Cell Titer Glo reagent (Promega, Madison, USA; order no. G7573), 1:2 diluted with cell culture medium, was added to each well. The 384we11-plates were placed for 2 min on a orbital microplate shaker and incubated for further 10 min at room temperature to stabilize the luminescence signal.
(§8) Luminescence was measured by Envision Plate Reader (Perkin Elmer, USA). IC50 values were calculated with the software Excel Fit (IDBS, Guildford, UK) from 3-fold dilution series comprising at least 8 concentrations in duplicates.

Hela cells = assay: Cell Viability Assay, Hela cells; type: cell-based; conditions: Homo sapiens, 72 h, Cell Titer Glo, read-out: Cell Viability - Hela cells (activity range), IC50
Protocol: as §6, §7, §8

T4 sequence (P50750 whole entry): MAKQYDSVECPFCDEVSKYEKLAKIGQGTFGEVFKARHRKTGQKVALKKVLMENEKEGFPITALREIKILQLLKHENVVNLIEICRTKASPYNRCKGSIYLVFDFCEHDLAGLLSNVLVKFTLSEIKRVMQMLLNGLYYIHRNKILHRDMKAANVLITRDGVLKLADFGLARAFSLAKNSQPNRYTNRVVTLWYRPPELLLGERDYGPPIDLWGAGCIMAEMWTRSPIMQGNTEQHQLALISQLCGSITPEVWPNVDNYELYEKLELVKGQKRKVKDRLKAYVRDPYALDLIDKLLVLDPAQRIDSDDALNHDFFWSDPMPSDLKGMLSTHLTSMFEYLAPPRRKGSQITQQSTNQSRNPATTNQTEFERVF
T4 sequence (O75909 1-357 isoform O75909-1 partner): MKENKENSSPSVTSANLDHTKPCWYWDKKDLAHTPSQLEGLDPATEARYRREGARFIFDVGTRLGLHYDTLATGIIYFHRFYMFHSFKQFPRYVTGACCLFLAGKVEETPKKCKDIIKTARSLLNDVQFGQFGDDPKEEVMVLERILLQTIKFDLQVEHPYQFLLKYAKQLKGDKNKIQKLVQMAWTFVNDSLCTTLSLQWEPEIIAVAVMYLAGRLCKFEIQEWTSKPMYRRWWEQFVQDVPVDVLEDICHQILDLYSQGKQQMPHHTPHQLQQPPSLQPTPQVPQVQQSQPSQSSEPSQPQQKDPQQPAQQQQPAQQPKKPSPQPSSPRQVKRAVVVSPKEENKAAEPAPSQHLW
T7 sequence (P50750 whole entry): as the sequence (P50750 whole entry) above
T7 sequence (O60563 whole entry partner): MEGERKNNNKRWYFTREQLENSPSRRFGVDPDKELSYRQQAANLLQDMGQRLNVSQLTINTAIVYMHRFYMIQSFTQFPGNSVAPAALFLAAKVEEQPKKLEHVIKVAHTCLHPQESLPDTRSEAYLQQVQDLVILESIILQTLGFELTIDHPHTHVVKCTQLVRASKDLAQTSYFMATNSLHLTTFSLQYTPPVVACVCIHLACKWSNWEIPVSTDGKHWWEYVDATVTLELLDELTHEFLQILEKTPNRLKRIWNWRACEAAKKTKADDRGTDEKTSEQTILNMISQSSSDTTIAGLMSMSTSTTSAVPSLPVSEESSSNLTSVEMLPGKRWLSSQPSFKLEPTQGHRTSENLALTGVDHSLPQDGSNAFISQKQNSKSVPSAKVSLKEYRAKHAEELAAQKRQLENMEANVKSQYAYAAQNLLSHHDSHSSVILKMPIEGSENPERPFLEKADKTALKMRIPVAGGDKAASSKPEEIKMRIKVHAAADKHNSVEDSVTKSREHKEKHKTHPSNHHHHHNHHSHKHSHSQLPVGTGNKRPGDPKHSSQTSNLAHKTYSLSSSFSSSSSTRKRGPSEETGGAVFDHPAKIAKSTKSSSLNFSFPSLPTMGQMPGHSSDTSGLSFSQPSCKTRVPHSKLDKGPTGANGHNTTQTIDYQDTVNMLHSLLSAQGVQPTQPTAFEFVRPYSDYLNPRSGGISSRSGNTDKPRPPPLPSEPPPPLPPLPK
T2 sequence (P50613 whole entry): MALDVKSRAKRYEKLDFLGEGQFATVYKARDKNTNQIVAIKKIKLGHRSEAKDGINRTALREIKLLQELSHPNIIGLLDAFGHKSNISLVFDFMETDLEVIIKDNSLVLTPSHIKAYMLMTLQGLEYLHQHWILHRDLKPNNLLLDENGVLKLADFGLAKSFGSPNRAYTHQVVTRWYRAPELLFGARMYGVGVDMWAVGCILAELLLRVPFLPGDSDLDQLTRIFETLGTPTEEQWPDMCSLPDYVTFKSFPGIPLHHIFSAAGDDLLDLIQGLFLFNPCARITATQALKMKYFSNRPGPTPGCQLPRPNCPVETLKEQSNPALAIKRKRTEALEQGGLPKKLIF
T2 sequence (P51946 whole entry partner): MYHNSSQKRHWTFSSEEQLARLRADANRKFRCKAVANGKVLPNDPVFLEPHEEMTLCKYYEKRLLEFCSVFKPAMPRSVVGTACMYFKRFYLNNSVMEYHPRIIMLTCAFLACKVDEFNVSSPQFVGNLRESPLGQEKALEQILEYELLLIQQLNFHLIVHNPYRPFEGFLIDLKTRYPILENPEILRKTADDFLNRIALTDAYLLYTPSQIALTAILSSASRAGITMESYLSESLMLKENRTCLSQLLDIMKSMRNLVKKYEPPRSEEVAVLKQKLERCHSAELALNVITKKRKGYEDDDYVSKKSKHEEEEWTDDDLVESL
T2 sequence (P51948 whole entry partner): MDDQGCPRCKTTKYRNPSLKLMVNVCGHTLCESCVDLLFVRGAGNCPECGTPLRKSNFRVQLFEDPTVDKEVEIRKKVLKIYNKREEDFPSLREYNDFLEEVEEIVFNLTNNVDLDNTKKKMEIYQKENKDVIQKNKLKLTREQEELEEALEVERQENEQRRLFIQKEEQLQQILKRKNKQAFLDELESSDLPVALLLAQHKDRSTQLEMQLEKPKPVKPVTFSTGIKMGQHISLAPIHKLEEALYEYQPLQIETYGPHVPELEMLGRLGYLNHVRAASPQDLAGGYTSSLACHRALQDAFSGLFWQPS
T5 sequence (P06493 whole entry): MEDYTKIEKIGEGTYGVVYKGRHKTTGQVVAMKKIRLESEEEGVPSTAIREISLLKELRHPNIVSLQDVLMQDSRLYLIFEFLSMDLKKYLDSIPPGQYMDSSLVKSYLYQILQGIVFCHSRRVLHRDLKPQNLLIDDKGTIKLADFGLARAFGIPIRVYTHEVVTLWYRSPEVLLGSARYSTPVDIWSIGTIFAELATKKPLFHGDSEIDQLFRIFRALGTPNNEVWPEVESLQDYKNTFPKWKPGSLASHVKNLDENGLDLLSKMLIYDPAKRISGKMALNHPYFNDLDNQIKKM
T5 sequence (P14635 whole entry partner): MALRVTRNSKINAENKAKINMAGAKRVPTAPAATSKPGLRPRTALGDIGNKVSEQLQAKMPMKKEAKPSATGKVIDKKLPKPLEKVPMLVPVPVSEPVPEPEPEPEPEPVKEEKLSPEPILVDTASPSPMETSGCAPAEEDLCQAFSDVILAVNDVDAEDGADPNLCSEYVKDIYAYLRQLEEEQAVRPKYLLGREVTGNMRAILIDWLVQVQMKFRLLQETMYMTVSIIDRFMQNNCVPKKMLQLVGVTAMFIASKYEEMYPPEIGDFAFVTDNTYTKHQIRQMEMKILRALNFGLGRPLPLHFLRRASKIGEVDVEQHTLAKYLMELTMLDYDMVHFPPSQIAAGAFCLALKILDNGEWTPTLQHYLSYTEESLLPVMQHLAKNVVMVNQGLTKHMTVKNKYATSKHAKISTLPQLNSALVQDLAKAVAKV
T8 sequence (Q00534 whole entry): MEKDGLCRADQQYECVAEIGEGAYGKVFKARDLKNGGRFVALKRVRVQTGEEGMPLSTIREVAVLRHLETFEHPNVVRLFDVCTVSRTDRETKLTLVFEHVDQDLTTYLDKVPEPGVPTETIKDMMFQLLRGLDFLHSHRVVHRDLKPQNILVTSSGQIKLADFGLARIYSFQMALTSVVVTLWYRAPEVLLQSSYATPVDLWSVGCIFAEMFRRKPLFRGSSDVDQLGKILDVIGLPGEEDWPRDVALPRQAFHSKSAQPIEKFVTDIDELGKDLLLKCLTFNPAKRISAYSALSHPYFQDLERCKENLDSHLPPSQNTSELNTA
T8 sequence (P30281 whole entry partner): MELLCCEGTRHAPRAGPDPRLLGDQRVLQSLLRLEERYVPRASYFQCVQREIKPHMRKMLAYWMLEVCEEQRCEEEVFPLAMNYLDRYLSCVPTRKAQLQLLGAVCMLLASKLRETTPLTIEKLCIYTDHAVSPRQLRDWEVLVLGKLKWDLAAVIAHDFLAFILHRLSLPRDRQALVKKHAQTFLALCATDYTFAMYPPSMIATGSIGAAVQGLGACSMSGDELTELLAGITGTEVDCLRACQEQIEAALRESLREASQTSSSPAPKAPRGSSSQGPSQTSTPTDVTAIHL
T3 sequence (P50750 whole entry): as the sequence (P50750 whole entry) above
T1 sequence (P11802 whole entry): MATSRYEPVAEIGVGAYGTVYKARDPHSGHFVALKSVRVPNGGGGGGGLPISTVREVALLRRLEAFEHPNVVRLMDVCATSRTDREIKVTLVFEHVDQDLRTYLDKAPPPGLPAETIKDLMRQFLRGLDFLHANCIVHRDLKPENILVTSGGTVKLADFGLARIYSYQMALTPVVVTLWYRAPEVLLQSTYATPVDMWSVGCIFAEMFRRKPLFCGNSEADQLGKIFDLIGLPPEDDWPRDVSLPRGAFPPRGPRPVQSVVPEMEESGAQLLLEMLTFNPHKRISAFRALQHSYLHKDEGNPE
T1 sequence (P24385 whole entry partner): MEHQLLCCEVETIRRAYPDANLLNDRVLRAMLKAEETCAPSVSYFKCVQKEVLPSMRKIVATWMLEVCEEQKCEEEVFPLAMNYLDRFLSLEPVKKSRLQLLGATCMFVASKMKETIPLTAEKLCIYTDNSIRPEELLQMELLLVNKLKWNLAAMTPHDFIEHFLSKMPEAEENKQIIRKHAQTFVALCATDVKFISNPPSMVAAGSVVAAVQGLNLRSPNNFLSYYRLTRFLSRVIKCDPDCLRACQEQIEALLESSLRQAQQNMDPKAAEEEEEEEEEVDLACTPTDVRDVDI

Compound	pIC50 (CDK4/CyclinD1)	pIC50 (CDK7/CyclinH/MAT1 [1])	pIC50 (CDK9)	pKd (CDK9/Cyclin K)	pIC50 (CDK1/CyclinB1)	pIC50 (CDK2/CyclinA [2])	pKd (CDK9/Cyclin T1)	pIC50 (CDK6/CyclinD3)	pKd (CDK2/CyclinA [3])	pKd (CDK7/CyclinH/MAT1 [4])	pIC50 [5]	pIC50 (MDAMB468 cells)	pIC50 (Hela cells)
CN(C)CCC1CCCCN1c1ncnc(Nc2cccc(CS(N)(=O)=O)c2)n1 (racemic) [Compound B8, rac-3-[(4-(2-(2-(Dimethylamino)ethyl)piperidin-1-yl)-1,3,5-triazin-2-yl)amino]benzenemethanesulfonamide]	< 5.00	< 5.00	5.00 to 6.00	5.00 to 6.00	< 5.00	< 5.00	5.00 to 6.00	< 5.00	–	–	–	–	–
NS(=O)(=O)Cc1cccc(Nc2ncnc(N3CCC[C@@H]3COCc3ccccc3)n2)c1 [Compound B30, (R)-3-[(4-(2-(Benzyloxymethyl)pyrrolidin-1-yl)-1,3,5-triazin-2-yl)amino]benzenemethanesulfonamide]	–	–	–	6.00 to 7.00	–	–	6.00 to 7.00	–	< 5.00	< 5.00	< 5.00	–	–
NS(=O)(=O)Cc1cccc(Nc2ncnc(N3CCC[C@@H]3c3ccccc3)n2)c1 [Compound B34, (R)-3-[(4-(2-Phenylpyrrolidin-1-yl)-1,3,5-triazin-2-yl)amino]-benzenemethanesulfonamide]	–	–	–	> 7.00	–	–	> 7.00	–	5.00 to 6.00	< 5.00	–	5.00 to 6.00	< 5.00
NS(=O)(=O)Cc1cccc(Nc2ncnc(N3Cc4ccncc4C3)n2)c1 [Compound B49, 3-[(4-(1H-Pyrrolo[3,4-c]pyridin-2(3H)-yl)-1,3,5-triazin-2-yl)amino]-benzenemethanesulfonamide]	–	–	–	> 7.00	–	–	> 7.00	–	6.00 to 7.00	< 5.00	–	< 5.00	< 5.00
